Source: article PMC10504751, “Chalcone/1,3,4-Oxadiazole/Benzimidazole hybrids as novel anti-proliferative agents inducing apoptosis and inhibiting EGFR & BRAFV^600E” (BMC Chemistry, 2023)

Key:
[1] = test system: melanoma LOX-IMVI cell line; test: Propidium iodide anti-proliferative assay in LOX-IMVI; type: cell-based, human; details: for IC50: Homo sapiens, melanoma LOX-IMVI, 48 h incubation; for fold more selective towards LOX-IMVI cell line: LOX-IMVI vs MCF-10 A
Protocol: Consequently, the half-maximal inhibitory concentration (IC50) of these compounds was determined in LOX-IMVI cell line using propidium iodide (PI)^31, 32 with Staurosporine (broad spectrum protein kinase inhibitor) as a reference.
Cells whose cell membranes are damaged or have changed permeability are counted as dead ones. […] The medium was removed; the compounds were added to the plates at 10 µM concentrations (in 0.1% DMSO) in triplicates, followed by incubation for 48 h. DMSO (0.1%) was used as control. After incubation, medium was removed followed by the addition of PI (25 µl, 50µg/mL in water/medium) to each well of the plates. At -80 °C, the plates were allowed to freeze for 24 h, followed by thawing at 25 °C. A fluorometer (Polar-Star BMG Tech) was used to record the readings at excitation and emission wavelengths of 530 and 620 nm for each well. The percentage cytotoxicity of compounds was calculated using the following formula:
Where ATC= Absorbance of treated cells and AC= Absorbance of control.

MCF-7 cells [2] = test: Cell cycle analysis; type: cell-based, human; details: MCF-7, IC50 (0.95 µM), 24 h
Excerpt: From the previous results, it was concluded that compound 7k might arrest cells at G1/S and prevent it from entering G2/M phase as indicated by decreased percentage of accumulation of cells in G2/M phase compared to control.

MCF-7 cells [3] = test: Annexin V-FITC/PI apoptosis detection; type: cell-based, human; details: MCF-7, IC50 (0.95 µM), 24 h
Protocol: To further study the root for cytotoxic activity of compound 7k, Annexin V-FITC/PI assay method^40, 41 was used to investigate its capability to induce apoptosis.
Apoptosis was determined by flow cytometry based on the Annexin-V-fluoresce in isothiocyanate (FITC) and propidium iodide (PI) staining kit (BD Pharmingen, San Diego, USA) See Appendix A.
Apoptosis was determined by flow cytometry based on the Annexin-V-fluoresce in isothiocyanate (FITC) and propidium iodide (PI) staining kit (BD Pharmingen, San Diego, USA.^15^,1^6 […] Apoptotic cells were defined as Annexin-V-positive. […] Treated cells were trypsinized, washed twice with PBS and transferred into micro centrifuge tubes for centrifugation at1000 rpm for 5 min at room temperature, then resuspended in binding buffer, 5 μL of FITC and PI were added to per eppendorf tube, cells were vortexed, incubated for 15 min at room temperature in dark. Subsequently, cells were analyzed by flow cytometry (Becton Dickinson, Franklin Lakes, and USA).

[4] = test system: Panc-1, A-549, MCF-7 and HT-29; test: Propidium iodide anti-proliferative assay, four cell lines together; type: cell-based; details: Homo sapiens; range over Panc-1, A-549, MCF-7, HT-29; read-out: IC50 range on the four tested cell lines
Protocol: The propidium iodide (PI) tests^31, 32 were further used for assessment of the IC50 of all synthesized compounds and compared to Doxorubicin as a positive control against four cancer cell lines; pancreatic cancer cell line (Panc-1), epithelial line cancer cell (A-549), breast cancer cell line (MCF-7), and colon cancer cell line (HT-29).
Using the propidium iodide fluorescence assay with doxorubicin as the reference drug, IC50 of the 24 compounds 7a-x, was carried out according to a previously reported procedure^31, 32 against a panel of four human cancer cell lines; epithelial cancer cell line (A-549), breast cancer cell line (MCF-7), colon cancer cell line (HT-29) and pancreas cancer cell line (Panc-1). Compounds 7a-x were incubated with cancer cells for 2 days at different concentrations. See Appendix A.
To explore the antiproliferative potential of compounds propidium iodide fluorescence assay was performed using different cell lines (melanoma cancer cell line LOX-IMVI, pancreatic cancer cell line (Panc-1), epithelial line cancer cell (A-549), breast cancer cell line (MCF-7), and colon cancer cell line (HT-29). To calculate the total nuclear DNA, a fluorescent dye (propidium iodide, PI) is used which can attach to the DNA,^9,^10 thus offering a quick and precise technique. PI cannot pass through the cell membrane and its signal intensity can be considered as directly proportional to the quantity of cellular DNA. Cells whose cell membranes are damaged or have changed permeability are counted as dead ones. The assay was performed by seeding the cells of different cancer cell lines at a density of 3000-7500 cells/well (in 200µl medium) in culture plates followed by incubation for 24h at 37 °C in humidified 5% CO2/95% air atmospheric conditions. […] A fluorometer (Polar-Star BMG Tech) was used to record the readings at excitation and emission wavelengths of 530 and 620 nm for each well. The percentage cytotoxicity of compounds was calculated using the following formula:
Where ATC= Absorbance of treated cells and AC= Absorbance of control. […]

Row | Structure (SMILES) | IC50 [1] [nM] | IC50 [4] [nM] | fold more selective towards LOX-IMVI cell line [1] [fold] | also measured
1 | O=C(CSc1nnc(-c2ccc3[nH]c(-c4ccc(Cl)cc4)nc3c2)o1)Nc1ccc(C(=O)/C=C/c2ccc(Cl)cc2)cc1 [Compound 7g, 2-{5-[2-(4-Chlorophenyl)-1 H-benzo[d]imidazol-5-yl]-1,3,4-oxadiazol-2-ylthio}-N-{4-[(E)-3-(4-chlorophenyl)acryloyl]phenyl}acetamide] | 1050 ± 100 |  |  | 
2 | COc1ccc(-c2nc3cc(-c4nnc(SCC(=O)Nc5ccc(C(=O)/C=C/c6ccccc6)cc5)o4)ccc3[nH]2)cc1 [Compound 7k, 2-{5-[2-(4-Methoxyphenyl)-1 H-benzo[d]imidazol-5-yl]-1,3,4-oxadiazol-2-ylthio}-N-{4-[(E)-3-phenylacryloyl]phenyl}acetamide] |  | 950 to 1400 |  | percentage of cells in G2/M phase (MCF-7 cells [2]; control 12.22%): 3.19%; percentage of cells in S phase (MCF-7 cells [2]; control 29.51%): 34.86%; percentage of cells in G0-G1 phase (MCF-7 cells [2]; control 58.27%): 61.95%; early apoptosis (MCF-7 cells [3]): 28.71%; late apoptosis (MCF-7 cells [3]): 12.63%; necrosis (MCF-7 cells [3]): 3.05%
3 | COc1ccc(-c2nc3cc(-c4nnc(SCC(=O)Nc5ccc(C(=O)/C=C/c6ccc(Cl)cc6)cc5)o4)ccc3[nH]2)cc1 [Compound 7l, 2-{5-[2-(4-Methoxyphenyl)-1 H-benzo[d]imidazol-5-yl]-1,3,4-oxadiazol-2-ylthio}-N-{4-[(E)-3-(4-chlorophenyl)acryloyl]phenyl}acetamide] | 800 ± 100 | 1100 to 1650 | 111 | 
4 | COc1ccc(-c2nc3cc(-c4nnc(SCC(=O)Nc5ccc(C(=O)/C=C/c6ccccc6)cc5)o4)ccc3[nH]2)cc1OC [Compound 7p, 2-{5-[2-(3,4-Dimethoxyphenyl)-1 H-benzo[d]imidazol-5-yl]-1,3,4-oxadiazol-2-ylthio}-N-{4-[(E)-3-phenylacryloyl]phenyl}acetamide] | 1200 ± 100 |  |  | 
5 | COc1ccc(-c2nc3cc(-c4nnc(SCC(=O)Nc5ccc(C(=O)/C=C/c6ccc(Cl)cc6)cc5)o4)ccc3[nH]2)cc1OC [Compound 7q, 2-{5-[2-(3,4-Dimethoxyphenyl)-1 H-benzo[d]imidazol-5-yl]-1,3,4-oxadiazol-2-ylthio}-N-{4-[(E)-3-(4-chlorophenyl)acryloyl]phenyl}acetamide] | 2500 ± 200 |  |  | 
6 | COc1cc(-c2nc3cc(-c4nnc(SCC(=O)Nc5ccc(C(=O)/C=C/c6ccc(Cl)cc6)cc5)o4)ccc3[nH]2)cc(OC)c1OC [Compound 7v, 2-{5-[2-(3,4,5-Trimethoxyphenyl)-1 H-benzo[d]imidazol-5-yl]-1,3,4-oxadiazol-2-ylthio}-N-{4-[(E)-3-(4-chlorophenyl)acryloyl]phenyl}acetamide] | 900 ± 100 |  | 97 | 
